pIC50: −log10 of the molar value.
System: 677734-321-R-J1-PDC complex spheroid viability
Experiment: Anticancer human tumor 677734-321-R-J1-PDC patient-derived soft tissue sarcoma cell line growth inhibition [POLQ]
Settings: for pIC50: curve of first compound; for viability, T/C: stronger effect = lower value
Outline: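 Complex spheroid viability model combining PDC tumour cells with endothelial (HUVEC) and MSC stromal cells. Novobiocin, ART-558 or RP6685 were tested singly and in combination with standard and investigational anticancer drugs. Each was titrated in half-log steps from near clinical Cmax, or from 10 microM where Cmax was unknown.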

[1] = second compound 0.0316 µM, first compound 0.00316 µM
[2] = second compound 0.0316 µM, first compound 0.01 µM
[3] = second compound 0.0316 µM, first compound 0.0316 µM
[4] = second compound 0.0316 µM, first compound 0.1 µM
[5] = second compound 0.0316 µM, first compound 0.316 µM
[6] = second compound 0.0316 µM, first compound 1 µM
[7] = second compound 0.1 µM, first compound 0.00316 µM
[8] = second compound 0.1 µM, first compound 0.01 µM
[9] = second compound 0.1 µM, first compound 0.0316 µM
[10] = second compound 0.1 µM, first compound 0.1 µM
[11] = second compound 0.1 µM, first compound 0.316 µM
[12] = second compound 0.1 µM, first compound 1 µM
[13] = second compound 0.316 µM, first compound 0.00316 µM
[14] = second compound 0.316 µM, first compound 0.01 µM
[15] = second compound 0.316 µM, first compound 0.0316 µM
[16] = second compound 0.316 µM, first compound 0.1 µM
[17] = second compound 0.316 µM, first compound 0.316 µM
[18] = second compound 0.316 µM, first compound 1 µM
[19] = second compound 1 µM, first compound 0.00316 µM
[20] = second compound 1 µM, first compound 0.01 µM
[21] = second compound 1 µM, first compound 0.0316 µM
[22] = second compound 1 µM, first compound 0.1 µM
[23] = second compound 1 µM, first compound 0.316 µM
[24] = second compound 1 µM, first compound 1 µM
[25] = second compound 3.16 µM, first compound 0.00316 µM
[26] = second compound 3.16 µM, first compound 0.01 µM
[27] = second compound 3.16 µM, first compound 0.0316 µM
[28] = second compound 3.16 µM, first compound 0.1 µM
[29] = second compound 3.16 µM, first compound 0.316 µM
[30] = second compound 3.16 µM, first compound 1 µM
[31] = second compound 10 µM, first compound 0.00316 µM
[32] = second compound 10 µM, first compound 0.01 µM
[33] = second compound 10 µM, first compound 0.0316 µM
[34] = second compound 10 µM, first compound 0.1 µM
[35] = second compound 10 µM, first compound 0.316 µM
[36] = second compound 10 µM, first compound 1 µM
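Further: spheroids exposed to compounds for one week.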
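Wherever viability, T/C is given: 100% = vehicle DMSO treated spheroids.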

COc1cccc(OCCCN)c1-c1cc(Nc2cnc(C#N)cn2)n[nH]1 + COC1C(OC(N)=O)C(O)C(Oc2ccc3c(O)c(NC(=O)c4ccc(O)c(CC=C(C)C)c4)c(=O)oc3c2C)OC1(C)C
pIC50 (second compound 0.0316 µM): 8.13 | pIC50 (second compound 0.1 µM): 8.13 | pIC50 (second compound 0.316 µM): 8.15 | pIC50 (second compound 1 µM): 8.09 | pIC50 (second compound 3.16 µM): 8.13 | pIC50 (second compound 10 µM): 8.14 | viability, T/C [1]: 97.1% | viability, T/C [2]: 33.8% | viability, T/C [3]: 12.8% | viability, T/C [4]: 9.46% | viability, T/C [5]: 8.59% | viability, T/C [6]: 8.45% | viability, T/C [7]: 92.5% | viability, T/C [8]: 35.6% | viability, T/C [9]: 11.9% | viability, T/C [10]: 8.91% | viability, T/C [11]: 9.88% | viability, T/C [12]: 7.56% | viability, T/C [13]: 97.3% | viability, T/C [14]: 29% | viability, T/C [15]: 14.7% | viability, T/C [16]: 9.01% | viability, T/C [17]: 10.5% | viability, T/C [18]: 7.41% | viability, T/C [19]: 102% | viability, T/C [20]: 38.5% | viability, T/C [21]: 9.9% | viability, T/C [22]: 11.4% | viability, T/C [23]: 11.9% | viability, T/C [24]: 8.34% | viability, T/C [25]: 103% | viability, T/C [26]: 30.6% | viability, T/C [27]: 11.9% | viability, T/C [28]: 9.84% | viability, T/C [29]: 12.3% | viability, T/C [30]: 9.73% | viability, T/C [31]: 88.4% | viability, T/C [32]: 35.7% | viability, T/C [33]: 12.3% | viability, T/C [34]: 12% | viability, T/C [35]: 10.3% | viability, T/C [36]: 9.04%

Cn1ncnc1[C@H]1c2n[nH]c(=O)c3cc(F)cc(c23)N[C@@H]1c1ccc(F)cc1 + COC1C(OC(N)=O)C(O)C(Oc2ccc3c(O)c(NC(=O)c4ccc(O)c(CC=C(C)C)c4)c(=O)oc3c2C)OC1(C)C
pIC50 (second compound 0.0316 µM): < 7.00 | pIC50 (second compound 0.1 µM): < 7.00 | pIC50 (second compound 0.316 µM): < 7.00 | pIC50 (second compound 1 µM): < 7.00 | pIC50 (second compound 3.16 µM): < 7.00 | pIC50 (second compound 10 µM): < 7.00 | viability, T/C (second compound 0.0316 µM, first compound 0.000316 µM): 101% | viability, T/C (second compound 0.0316 µM, first compound 0.001 µM): 103% | viability, T/C [1]: 99.7% | viability, T/C [2]: 101% | viability, T/C [3]: 98.8% | viability, T/C [4]: 85.7% | viability, T/C (second compound 0.1 µM, first compound 0.000316 µM): 97.6% | viability, T/C (second compound 0.1 µM, first compound 0.001 µM): 101% | viability, T/C [7]: 106% | viability, T/C [8]: 101% | viability, T/C [9]: 98.5% | viability, T/C [10]: 95.2% | viability, T/C (second compound 0.316 µM, first compound 0.000316 µM): 106% | viability, T/C (second compound 0.316 µM, first compound 0.001 µM): 97.8% | viability, T/C [13]: 98.5% | viability, T/C [14]: 104% | viability, T/C [15]: 97.6% | viability, T/C [16]: 93.4% | viability, T/C (second compound 1 µM, first compound 0.000316 µM): 109% | viability, T/C (second compound 1 µM, first compound 0.001 µM): 102% | viability, T/C [19]: 103% | viability, T/C [20]: 104% | viability, T/C [21]: 96.3% | viability, T/C [22]: 92.5% | viability, T/C (second compound 3.16 µM, first compound 0.000316 µM): 108% | viability, T/C (second compound 3.16 µM, first compound 0.001 µM): 94.7% | viability, T/C [25]: 103% | viability, T/C [26]: 100% | viability, T/C [27]: 106% | viability, T/C [28]: 94.4% | viability, T/C (second compound 10 µM, first compound 0.000316 µM): 103% | viability, T/C (second compound 10 µM, first compound 0.001 µM): 100% | viability, T/C [31]: 106% | viability, T/C [32]: 103% | viability, T/C [33]: 99.4% | viability, T/C [34]: 93.3%

O=C(c1cc(Cc2n[nH]c(=O)c3ccccc23)ccc1F)N1CCN(C(=O)C2CC2)CC1 + COC1C(OC(N)=O)C(O)C(Oc2ccc3c(O)c(NC(=O)c4ccc(O)c(CC=C(C)C)c4)c(=O)oc3c2C)OC1(C)C
pIC50 (second compound 0.0316 µM): < 5.00 | pIC50 (second compound 0.1 µM): < 5.00 | pIC50 (second compound 0.316 µM): < 5.00 | pIC50 (second compound 1 µM): < 5.00 | pIC50 (second compound 3.16 µM): < 5.00 | pIC50 (second compound 10 µM): < 5.00 | viability, T/C [3]: 108% | viability, T/C [4]: 105% | viability, T/C [5]: 103% | viability, T/C [6]: 110% | viability, T/C (second compound 0.0316 µM, first compound 3.16 µM): 102% | viability, T/C (second compound 0.0316 µM, first compound 10 µM): 86.4% | viability, T/C [9]: 104% | viability, T/C [10]: 112% | viability, T/C [11]: 101% | viability, T/C [12]: 104% | viability, T/C (second compound 0.1 µM, first compound 3.16 µM): 107% | viability, T/C (second compound 0.1 µM, first compound 10 µM): 79.6% | viability, T/C [15]: 112% | viability, T/C [16]: 111% | viability, T/C [17]: 104% | viability, T/C [18]: 111% | viability, T/C (second compound 0.316 µM, first compound 3.16 µM): 111% | viability, T/C (second compound 0.316 µM, first compound 10 µM): 78.1% | viability, T/C [21]: 108% | viability, T/C [22]: 105% | viability, T/C [23]: 111% | viability, T/C [24]: 99.9% | viability, T/C (second compound 1 µM, first compound 3.16 µM): 107% | viability, T/C (second compound 1 µM, first compound 10 µM): 81.2% | viability, T/C [27]: 117% | viability, T/C [28]: 111% | viability, T/C [29]: 113% | viability, T/C [30]: 103% | viability, T/C (second compound 3.16 µM, first compound 3.16 µM): 100% | viability, T/C (second compound 3.16 µM, first compound 10 µM): 87.3% | viability, T/C [33]: 118% | viability, T/C [34]: 106% | viability, T/C [35]: 108% | viability, T/C [36]: 112% | viability, T/C (second compound 10 µM, first compound 3.16 µM): 103% | viability, T/C (second compound 10 µM, first compound 10 µM): 88%

Source: PubChem BioAssay AID1963842 (Molecular Pharmacology Branch, DTP, NCI, 2024)
